Reference: patent US20100119599A1 (ARCHER PHARMACEUTICALS, INC., priority 2006, published 2010)
Like-named read-outs stand apart in the source and are kept apart here.

Assays:
Aβ1-42 = assay: Measurement of Aβ1-42 in culture medium of 7W WT APP751 CHO cells by ELISA; format: cell-based, Chinese hamster; conditions: for Aβ1-42 (% of control): CHO cells that overexpress APP751, zero = below the detection limit of the assay; for activity at 5 µM: Cricetulus griseus, 5 μM test compound, CHO cells stably transfected with human APP751, culture medium, ELISA, control DMSO;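 on Aβ1-42 (% of control): 5 µM test compound but RI-coded compounds at 10 µM for 24 hours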
Aβ1-40 = assay: Measurement of Aβ1-40 in culture medium of 7W WT APP751 CHO cells by ELISA; format: cell-based, Chinese hamster; conditions: for Aβ1-40 (% of control): CHO cells that overexpress APP751, zero = below the detection limit of the assay; for activity at 5 µM: Cricetulus griseus, 5 μM test compound, CHO cells stably transfected with human APP751, culture medium, ELISA, control DMSO;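 on all read-outs here: 5 µM test compound but RI-coded compounds at 10 µM for 24 hours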
[1] = Table 1, 0 = no detectable amount, read-out: Aβ1-42 (% of control)
[2] = Table 1, 0 = no detectable amount

| SMILES | Aβ1-42 (% of control) (Aβ1-42) | Aβ1-40 (% of control) (Aβ1-40) | activity at 5 µM (Aβ1-42; [1]) | activity at 5 µM (Aβ1-40; [2]) | other results |
| --- | --- | --- | --- | --- | --- |
| CSC1=C(C#N)C(c2ccccc2)C(C(=O)Nc2ccc(Cl)cc2)=C(C)N1 (stereo not drawn) [RI_5] | 82.2 % of control | 81.4 % of control | – | – | – |
| CC1=C(C(=O)Nc2ccccc2)C(c2cccs2)C(C#N)=C(SCC(=O)NCCc2ccc(Br)cc2)N1 (stereo not drawn) [RI_19] | 44.4 % of control | 35.4 % of control | – | – | – |
| CC1=C(C(=O)OCC(C)C)C(c2ccc3c(c2)OCO3)C2=C(CC(c3ccccc3)CC2=O)N1 (stereo not drawn) [ST016978, 2-methylpropyl 4-(2H-benzo[3,4-d]1,3-dioxolen-5-yl)-2-methyl-5-oxo-7-phenyl-1,4,6,7,8-pentahydroquinoline-3-carboxylate] | – | – | 99.5% | 45.9% | – |
| COC(=O)C1=CN(C2CC2)C=C(C(=O)OC)C1c1cccc(F)c1 [ST038735, methyl 1-cyclopropyl-4-(3-fluorophenyl)-5-(methoxycarbonyl)-1,4-dihydropyridine-3-carboxylate] | 98.52 % of control | 65.36 % of control | – | – | – |
| CCOC(=O)C1=C(C)NC2=C(C(=O)CCC2)C1c1cccc(F)c1 (stereo not drawn) [ST013162, ethyl 4-(3-fluorophenyl)-2-methyl-5-oxo-1,4,6,7,8-pentahydroquinoline-3-carboxylate] | – | – | 36.3% | 33.4% | – |
| CCOCCOC(=O)C1=C(C)NC2=C(C(=O)CCC2)C1c1ccc(CC)cc1 (stereo not drawn) [ST013344, 2-ethoxyethyl 4-(4-ethylphenyl)-2-methyl-5-oxo-1,4,6,7,8-pentahydroquinoline-3-carboxylate] | – | – | 86.6% | 54.4% | – |
| CCCCOC(=O)C1=C(C)NC2=C(C(=O)CC(C)(C)C2)C1c1cc2c(cc1[N+](=O)[O-])OCO2 (stereo not drawn) [ST216053, butyl 2,7,7-trimethyl-4-(6-nitro(2H-benzo[d]1,3-dioxolen-5-yl))-5-oxo-1,4,6,7,8-pentahydroquinoline-3-carboxylate] | – | – | 6.37% | 22.2% | – |
| CCC(C)OC(=O)C1=C(C)NC2=C(C(=O)CC(c3ccc(OC)cc3)C2)C1c1cc2c(cc1[N+](=O)[O-])OCO2 (stereo not drawn) [ST017236, methylpropyl 7-(4-methoxyphenyl)-2-methyl-4-(6-nitro(2H-benzo[d]1,3-dioxolan-5-yl))-5-oxo-1,4,6,7,8-pentahydroquinoline-3-carboxylate] | – | – | 98.1% | 61% | – |
| COC(=O)CSC1=C(C#N)C(c2cccs2)C(C(C)=O)=C(C)N1 (stereo not drawn) [ST014038, methyl 2-(5-acetyl-3-cyano-6-methyl-4-(2-thienyl)-2-1,4-dihydropyridylthio)acetate] | 21.82 % of control | 29.98 % of control | – | – | – |
| CCCOC(=O)C1=C(C)NC2=C(C(=O)CCC2)C1c1ccccc1OC(C)C (stereo not drawn) [ST013322, propyl 2-methyl-4-[2-(methylethoxy)phenyl]-5-oxo-1,4,6,7,8-pentahydroquinoline-3-carboxylate] | – | – | 99.7% | 57.6% | – |
| CCCOC(=O)C1=C(C)NC2=C(C(=O)CC(C)(C)C2)C1c1ccc(OC)cc1OC (stereo not drawn) [ST017226, propyl 4-(2,4-dimethoxyphenyl)-2,7,7-trimethyl-5-oxo-1,4,6,7,8-pentahydroquinoline-3-carboxylate] | – | – | 26.5% | 23.6% | – |
| CCCCOC(=O)C1=C(C)NC2=C(C(=O)CCC2)C1c1ccc(Cl)cc1 (stereo not drawn) [ST017175, butyl 4-(4-chlorophenyl)-2-methyl-5-oxo-1,4,6,7,8-pentahydroquinoline-3-carboxylate] | – | – | 34.5% | 59.8% | – |
| COC(=O)C1=C(C)NC2=C(C(=O)CCC2)C1c1cccc(OC)c1 (stereo not drawn) [ST013153, methyl 4-(3-methoxyphenyl)-2-methyl-5-oxo-1,4,6,7,8-pentahydroquinoline-3-carboxylate] | – | – | 66.3% | 91.4% | – |
| N#CC1=C(N)N(c2sc3c(c2C#N)CCCC3)C2=C(CCC2)C1(C(F)(F)F)C(F)(F)F [ST044920, 2-[2-amino-4,4-bis(trifluoromethyl)-3-cyano-1,4,5,6,7-pentahydrocyclopenta[1,2-b]pyridinyl]-4,5,6,7-tetrahydrobenzo[b]thiophene-3-carbonitrile] | – | – | – | – | activity at 5 µM (Aβ1-42; Table 3, read-out: Aβ-42 (% of control)): 48.2%; activity at 5 µM (Aβ1-40; Table 3): 76.9% |
| CCc1cccc(NC(=O)CSC2=C(C#N)C(c3ccc(-c4ccccc4)s3)C(C(=O)Nc3ccccc3)=C(C)N2)c1 (stereo not drawn) [RI_89] | 55.1 % of control | 63.7 % of control | – | – | – |
| CCOc1cc(C2C(C(=O)OC(C)C)=C(C)NC3=C2C(=O)CCC3)ccc1O (stereo not drawn) [ST015043, methylethyl 4-(3-ethoxy-4-hydroxyphenyl)-2-methyl-5-oxo-1,4,6,7,8-pentahydroquinoline-3-carboxylate] | – | – | 68.8% | 95.9% | – |
| CCCCOC(=O)C1=C(C)NC2=C(C(=O)CCC2)C1c1ccccc1OCCC (stereo not drawn) [ST013325, butyl 2-methyl-5-oxo-4-(2-propoxyphenyl)-1,4,6,7,8-pentahydroquinoline-3-carboxylate] | – | – | 69.4% | 28.5% | – |

| SMILES | Aβ1-42 (% of control) (Aβ1-42) | Aβ1-40 (% of control) (Aβ1-40) | activity at 5 µM (Aβ1-42; [1]) | activity at 5 µM (Aβ1-40; [2]) | other results |
| --- | --- | --- | --- | --- | --- |
| Cc1cccc(C(C)C)c1NC(=O)CSc1nc(C)c(C(=O)Nc2ccccc2)c(-c2cccs2)c1C#N [RI_36] | 72.9 % of control | 35.9 % of control | – | – | – |
| CC1=C(C(=O)OCCc2ccccc2)C(c2cc3c(cc2Br)OCO3)C2=C(CC(C)(C)CC2=O)N1 (stereo not drawn) [ST014885, 2-phenylethyl 4-(6-bromo(2H-benzo[d]1,3-dioxolen-5-yl))-2,7,7-trimethyl-5-oxo-1,4,6,7,8-pentahydroquinoline-3-carboxylate] | – | – | 87.5% | 39.5% | – |
| CC1=C(C(=O)Nc2ccc(Cl)cc2)C(c2cccs2)C(C#N)=C(SCC(=O)Nc2cccc(C)c2)N1 (stereo not drawn) [RI_10] | 70.6 % of control | 78.8 % of control | – | – | – |
| CCOC(=O)C1=c2s/c(=C/c3ccccc3C(F)(F)F)c(=O)n2C(N)=C(C#N)C1c1ccccc1C(F)(F)F (stereo not drawn) [ST025089, ethyl 5-amino-6-cyano-3-oxo-7-[2-(trifluoromethyl)phenyl]-2-{[2-(trifluoromethyl)phenyl]methylene}-4,7-dihydro-1,3-thiazolidino[3,2-a]pyridine-8-carboxylate] | 33.69 % of control | 48.71 % of control | – | – | – |
| COCCOC(=O)C1=C(C)NC2=C(C(=O)CCC2)C1c1cccc(OC)c1 (stereo not drawn) [ST015219, 2-methoxyethyl 4-(3-methoxyphenyl)-2-methyl-5-oxo-1,4,6,7,8-pentahydroquinoline-3-carboxylate] | – | – | 45.8% | 83.7% | – |
| CC1=C(C(=O)Nc2ccccc2)C(c2cccs2)C(C#N)=C(SCC(=O)NCCC(C)(C)C)N1 (stereo not drawn) [RI_17] | 24.1 % of control | 18.2 % of control | – | – | – |
| CCSCCOC(=O)C1=C(C)NC2=C(C(=O)CCC2)C1c1ccc(OCCO)c(OC)c1 (stereo not drawn) [ST017113, 2-ethylthioethyl 4-[4-(2-hydroxyethoxy)-3-methoxyphenyl]-2-methyl-5-oxo-1,4,6,7,8-pentahydroquinoline-3-carboxylate] | – | – | 74.1% | 82.6% | – |
| CCCCOC(=O)C1=C(C)NC2=C(C(=O)CCC2)C1c1ccccc1OC (stereo not drawn) [ST013324, butyl 4-(2-methoxyphenyl)-2-methyl-5-oxo-1,4,6,7,8-pentahydroquinoline-3-carboxylate] | – | – | 93.7% | 54.3% | – |
| COC(=O)C1=C(C)NC2=C(C(=O)CC(c3ccc(OC)cc3)C2)C1c1ccc(C)cc1 (stereo not drawn) [ST013332, methyl 7-(4-methoxyphenyl)-2-methyl-4-(4-methylphenyl)-5-oxo-1,4,6,7,8-pentahydroquinoline-3-carboxylate] | – | – | 68% | 45.1% | – |
| CCOCCOC(=O)C1=C(C)NC2=C(C(=O)CCC2)C1c1cc(OC)c(OC)c(OC)c1 (stereo not drawn) [ST013345, 2-ethoxyethyl 2-methyl-5-oxo-4-(3,4,5-trimethoxyphenyl)-1,4,6,7,8-pentahydroquinoline-3-carboxylate] | – | – | 75.4% | 58.4% | – |
| CC1=C(C(=O)OCC(C)C)C(c2cccc(Cl)c2)C2=C(CC(c3ccccc3)CC2=O)N1 (stereo not drawn) [ST016969, 2-methylpropyl 4-(3-chlorophenyl)-2-methyl-5-oxo-7-phenyl-1,4,6,7,8-pentahydroquinoline-3-carboxylate] | – | – | 60.2% | 30.3% | – |
| CC1=C(C(=O)Nc2ccccc2)C(c2ccsc2)C(C#N)=C(SCC(=O)Nc2ccc(C(C)(C)C)cc2)N1 (stereo not drawn) [RI_64] | 41.3 % of control | 34.1 % of control | – | – | – |
| N#CC1=C(N)NC(SCC(N)=O)=C(C#N)C1c1ccc(Cl)cc1 (stereo not drawn) [RI_3] | 51.2 % of control | 97.4 % of control | – | – | – |
| CCOC(=O)C1=C(C)NC2=C(C(=O)CC(c3ccc(Cl)cc3)C2)C1c1cccc(Cl)c1Cl (stereo not drawn) [ST015068, ethyl 4-(2,3-dichlorophenyl)-7-(4-chlorophenyl)-2-methyl-5-oxo-1,4,6,7,8-pentahydroquinoline-3-carboxylate] | – | – | 83.8% | 46.3% | – |
| CC1=C(C(=O)Nc2ccccc2C)C(c2ccco2)C(C#N)=C(SCC(=O)Nc2cccc(Cl)c2C)N1 (stereo not drawn) [ST051156, N-(3-chloro-2-methylphenyl)-2-{3-cyano-4-(2-furyl)-6-methyl-5-[N-(2-methylphenyl)carbamoyl](2-1,4-dihydropyridylthio)}acetamide] | 68.02 % of control | 86.64 % of control | – | – | – |
| CCCCOC(=O)C1=C(C)NC2=C(C(=O)CC(C)(C)C2)C1c1cccc(Cl)c1Cl (stereo not drawn) [ST013239, butyl 4-(2,3-dichlorophenyl)-2,7,7-trimethyl-5-oxo-1,4,6,7,8-pentahydroquinoline-3-carboxylate] | – | – | 59.5% | 0% | – |
